Columns and labels:
Format in all cases: in vivo
Rice (Nipponbare) = test: Growth test, Rice; conditions: 50 μM, 6th day after transfer, vs DMSO control
Tomato (Momotaro) = test: Growth test, Tomato; conditions: 100 μM, 6th day after transfer, vs DMSO control
[1] = tested on: Physcomitrella patens subsp. patens; test: Growth test, Physcomitrella patens subsp. patens; conditions: 100 μM, 7th day after transfer, vs DMSO control
Tobacco = test: Growth test, Tobacco; conditions: compound 100 μM, 7 days after transfer
Procedure: Tobacco was cultured in a plate vertically set and using ½ MS medium containing 1.5% sucrose and 0.8% agar under continuous white light at 25° C. for 7 days. Thereafter, tobacco was transferred to a plate vertically set and using ½ MS medium containing 1.5% sucrose, 0.8% agar and the compound of the present invention (100 μM) and cultured under continuous white light at 25° C. for 7 days.

Arabidopsis = test: Growth recovery test with IAA, Arabidopsis; conditions: 8 days
Procedure: Arabidopsis was cultured in a plate vertically set and using ½ MS medium containing 1.5% sucrose, 0.8% agar (0.6% Gelrite in the case of KOK1169), the compound of the present invention and IAA under continuous white light at 22° C. for 8 days. […] In the test, KOK1101 (30 μM), KOK1160 (30 μM), KOK1165 (30 μM), and KOK1169 (100 μM) were studied.

Lettuce = test: Growth test, Lettuce; conditions: 30 μM, 6 days
Procedure: Lettuce was cultured in a plate vertically set and using ½ MS medium containing 1.5% sucrose, 0.8% agar and KOK1101 (30 μM) under continuous white light at 25° C. for 6 days.

[2] = compound 100 μM + IAA 10 nM, 0.6% Gelrite

## COC(=O)[C@H](Cc1ccc2ccccc2c1)ON [KOK 1168]
Rice (Nipponbare)
  growth of seedling: remarkably inhibited
Tomato (Momotaro)
  growth of seedling: remarkably inhibited
[1]
  differentiation into forage: inhibited
  growth of protonemata: remarkably inhibited

## NOC(Cc1cccc(Cl)c1)C(=O)O (centres unmarked) [KOK 1187]
Tobacco
  Note (morphology): Auxin-excess like morphology

## NO[C@@H](Cc1ccc2ccccc2c1)C(=O)O [KOK 1169]
Arabidopsis; [2]
  growth of an aerial part, recovery by simultaneous application with IAA: recovered
  main root elongation, recovery by simultaneous application with IAA: recovered

## COC(=O)[C@H](Cc1ccccc1)ON1C(=O)c2ccccc2C1=O [KOK 1101]
Arabidopsis; compound 30 μM + IAA 10 nM
  main root elongation, recovery by simultaneous application with IAA: recovered
Arabidopsis; compound 30 μM + IAA 100 nM
  growth of an aerial part, recovery by simultaneous application with IAA: recovered
Lettuce
  growth of the aerial part: Apparent growth inhibition
  main root elongation (underground part): promotion
  root hair formation (underground part): inhibition

## NO[C@@H](Cc1cccc2ccccc12)C(=O)O [KOK 1167]
Tobacco
  Note (morphology): Auxin-excess like morphology

## COC(=O)[C@H](Cc1ccc2ccccc2c1)ON1C(=O)c2ccccc2C1=O [KOK 1165]
Arabidopsis; compound 30 μM + IAA 10 nM
  growth of an aerial part, recovery by simultaneous application with IAA: recovered
  main root elongation, recovery by simultaneous application with IAA: recovered

## COC(=O)[C@H](Cc1cccc2ccccc12)ON1C(=O)c2ccccc2C1=O [KOK 1160]
Arabidopsis; compound 30 μM + IAA 10 nM
  growth of an aerial part, recovery by simultaneous application with IAA: recovered
  main root elongation, recovery by simultaneous application with IAA: recovered
